{
  "source": "patent US20230157970A1",
  "about": "“Targeted Therapy of Kidney Fibrosis” (Board of Regents, The University of Texas System, priority 2021, published 2023)",
  "key": {"[1]": {"system": "CKD model", "assay": "Folic acid CKD model, kidney size after harvesting", "format": "in vivo", "conditions": "folic acid CKD mice; 10 mg/kg, Navi oral, nanoparticles IV", "experimental": "This example was an animal study that created a CKD model by injecting 250 mg/kg folic acid intraperitonially (single injection). After 15 days the treatment started. The mice were divided in 5 groups of untreated, healthy, Fausidil, PLGA-Navitoclax, and PLGA-AT2-Navitoclax. FIG. 5: Figure: Image of the kidney after harvesting. The kidney from different treatment groups: A-Healthy control 510, B-Untreated control 520, C-Navi(10 mg/kg oral) 530, D-Fausidil(10 mg/kg IP) 540, E-PLGA-Navi(10 mg/kg IV) 550, F-PLGA-AT2-Navi(10 mg/kg IV) 560. FIGS. 6A-6B: The size of the untreated kidney shrunk by 42.46% (p-value 0.0062) than the healthy control (A). […] The weight of kidney (B) was also measured in gm and the weight 620 of the kidney treated with PLGA-AT2-Navi."}, "[2]": {"system": "Bcl2", "assay": "Western blot analysis from the kidney sample, Bcl2", "format": "in vivo, mice", "conditions": "10 mg/kg, compared with other groups", "experimental": "This example was an animal study that created a CKD model by injecting 250 mg/kg folic acid intraperitonially (single injection). After 15 days the treatment started. The mice were divided in 5 groups of untreated, healthy, Fausidil, PLGA-Navitoclax, and PLGA-AT2-Navitoclax.\nFIG. 8: Western blot analysis from the kidney sample. Bcl2 expression was decreased in the sample collected from different group Healthy control, Untreated control, Navi(10 mg/kg oral), Fausidil(10 mg/kg IP), PLGA-Navi(10 mg/kg IV), PLGA-AT2-Navi(10 mg/kg IV) of mice."}, "[3]": {"system": "apoptosis in kidney section", "assay": "TUNEL assay of kidney section", "format": "in vivo, mice", "experimental": "This example was an animal study that created a CKD model by injecting 250 mg/kg folic acid intraperitonially (single injection). After 15 days the treatment started. The mice were divided in 5 groups of untreated, healthy, Fausidil, PLGA-Navitoclax, and PLGA-AT2-Navitoclax. FIGS. 9A-9R: Immunohistochemistry (IHC) and TUNEL assay of kidney section. IHC for alpha-SMA protein of different treatment group (A-F). The arrow pointed to the dark dot which represented the alpha-SMA protein. […] The dark dot from FIGS. 9G-9L represented the CTGF protein."}},
  "data": [
    {"smiles": "CC1(C)CCC(c2ccc(Cl)cc2)=C(CN2CCN(c3ccc(C(=O)NS(=O)(=O)c4ccc(N[C@H](CCN5CCOCC5)CSc5ccccc5)c(S(=O)(=O)C(F)(F)F)c4)cc3)CC2)C1", "note": "[Navitoclax]", "values": [
      {"measurement": "increase of kidney size after treatment", "setting": "[1]", "result": 43.95, "unit": "%"},
      {"measurement": "Bcl2 expression", "setting": "[2]", "result": "less expression of bcl2"},
      {"measurement": "apoptosis (broken nucleus of DNA) by TUNEL", "setting": "[3]", "result": "apoptosis was observed"}
    ]}
  ]
}
